Experiments:
[1] = system: BAX gene transcription in SH-SY5Y cells; assay: Real-time RT-PCR in SH-SY5Y cells, BAX; type: cell-based, human
Description: (§1) SH-SY5Y cells were treated with or without B14, and total RNA was subsequently isolated and purified. Reverse transcription was performed using a cDNA synthesis kit. The relative transcription levels of the genes were evaluated through quantitative real-time PCR using the SYBR Green-based method, as described in the Supplementary Date. Details regarding the primer sequences and the raw data can be found in Table S7 and Table S8.
(§2) ^a -∆∆Ct = -[(Ct value of genes in treated sample - Ct value of genes in control) - (Ct value of β-actin in treated sample - Ct value of β-actin in control)]. ^b F: The relative expression fold.
(§3) Experiment 1: SH-SY5Y cells were treated with different concentration of B14. The Ct values of BAX, VEGF, CMYC and BCL-2 were obtained.
(§4) Total RNA was extracted from cells and mice liver tissue using RNAiso Plus (Takara, 9109, Japan). Following sample homogenization, chloroform was added, and the solution was allowed to have phase separation into an upper aqueous layer (containing RNA), an interphase, and a lower organic layer (containing DNA and proteins). RNA was precipitated from the aqueous phase using isopropanol, while DNA was precipitated from the aqueous-organic interphase using ethanol. Complementary DNA (cDNA) was synthesized using the One-Step RT-PCR Kit (Takara, Cat#639503, Japan).
(§5) Quantitative real-time polymerase chain reaction (qRT-PCR) was performed using the 2× RealStar SYBR Mixture (GenStar, Cat# A301-10, Guangzhou, China) on a LightCycler 480 II real-time PCR system (Roche, USA). Data were analyzed using the 2^−ΔΔCt method. Actin served as the internal control, and relative mRNA levels were normalized accordingly.

[2] = system: BCL-2 promoter G-quadruplex; assay: CD melting experiment, BCL-2 G-quadruplex; type: binding; settings: Tris-HCl buffer pH 7.4; 20 equivalents (20 μM) compound
Description: CD-melting experiment was carried out following a published method without significant modification. BCL-2 promoter i-motif and G-quadruplex structures at a concentration of 5 μM were annealed in buffer at 95 °C for 10 min, and then cooled to room temperature. The annealed samples were incubated with B14 for 6 h, and then molar ellipticity at 287 nm for i-motif structure or 260 nm for G-quadruplex structure, where the CD value was the highest in our experiment, was measured over a temperature range of 20–90 °C at a heating rate of 0.5 °C/min. Tm values were determined and calculated through nonlinear regression curve fitting with software GraphPad Prism 9.0. (GraphPad Software Inc., California, USA).
Figure S6. CD melting experiments were performed to examine the effects of B14 and A22 on BCL-2 promoter i-motif and G-quadruplex. (A-H) CD melting experiments were performed for BCL-2 promoter i-motif or G-quadruplex in the absence or presence of B14 (2, 5, 20 equivalents) and A22 (20 equivalents). The oligonucleotide for BCL-2 i-motif was annealed in 1 X BPES buffer at pH 5.5, while the oligonucleotide for BCL-2 G-quadruplex was annealed in 20 mM Tris-HCl buffer with 20 mM NaCl at pH 7.4. The ΔTm values for the effects of B14 and A22 on BCL-2 promoter i-motif were determined to be 11.26 °C and 11.82 °C, respectively. […]

[3] = system: C-MYC gene transcription in SH-SY5Y cells; assay: Real-time RT-PCR in SH-SY5Y cells, C-MYC; type: cell-based, human
Description: as §1, §2, §3, §4, §5

Aβ1-42 = molecular target: T1, Aβ1-42 (Homo sapiens, UniProt P05067); assay: Congo red binding assay; type: biochemical; settings: 20 μM compound, 72 h
T1 construct: Aβ1-42 was purchased from Gill Biochemicals Ltd (Shanghai, China); purchased Gill Biochemicals Ltd (Shanghai, China)
T1 sequence (P05067 672-713 limits assumed): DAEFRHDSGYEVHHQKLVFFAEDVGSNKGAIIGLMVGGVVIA
Description: (§6) A total of 30 μM Congo red (Aladdin, Shanghai, China) solution (20 mM potassium phosphate, 50 mM NaCl, pH 7.4) was prepared and filtered with a 0.45 μm filter. The Aβ1-42 solutions (30 μM) were co-incubated with B14 (20 μM), A22 (20 μM), or Curcumin (20 μM) at 37 °C protected from light for 72h. The Aβ1-42 solution was mixed with equal volume of Congo red solution, followed by incubation for 30 min. A spectral region from 400 nm to 650 nm was measured by using a UV–vis spectrophotometer (AoE, China).
as §6, with “red” for “red (Aladdin, Shanghai, China)”, “μM) and” for “μM), A22 (20 μM), or”, “solution and incubated” for “solution, followed by incubation”, “analyzed” for “measured”, “UV-vis” for “UV–vis”

## O=C(CCN1CCOCC1)Nc1ccc2c(c1)c(=O)c1cc(NC(=O)CCN3CCOCC3)ccc1n2-c1ccc2occc2c1 [Compound B14]
[1]; 6.25 μM B14
  -∆∆Ct, BAX: -0.13
  F = 2^-∆∆Ct (relative expression fold), BAX: 1.09
[1]; 12.5 μM B14
  -∆∆Ct, BAX: 0
  F = 2^-∆∆Ct (relative expression fold), BAX: 1.00
[1]; 25 μM B14
  -∆∆Ct, BAX: -0.03
  F = 2^-∆∆Ct (relative expression fold), BAX: 1.02
[2]
  ΔTm (CD melting): −3.13 °C
[3]; 6.25 μM B14
  -∆∆Ct, C-MYC: -0.01
  F = 2^-∆∆Ct (relative expression fold), C-MYC: 1.00
[3]; 12.5 μM B14
  -∆∆Ct, C-MYC: -0.02
  F = 2^-∆∆Ct (relative expression fold), C-MYC: 1.01
[3]; 25 μM B14
  -∆∆Ct, C-MYC: -0.03
  F = 2^-∆∆Ct (relative expression fold), C-MYC: 1.02
Aβ1-42
  absorbance of Congo red in the Aβ1-42 sample: significantly reduced

Source: PMC11982498 (Redox Biology, 2025)
